From patent US20200371122A1, “BIOMARKER FOR SENESCENT CELLS” (Buck Institute for Research on Aging, priority 2017, published 2020)

Tests used:
[1] = test system: IL-6 secretion in senescent cells; test: IL-6 ELISA on conditioned media of IR-induced senescent cells treated with COX-2/ALOX5 inhibitors; type: cell-based, human; details: SEN(IR) IMR-90, inhibitor for 10 days
Experimental: (§1) Human fetal lung fibroblasts (IMR-90) were cultured in Dulbecco's modified eagle medium (DMEM) supplemented with 10% FBS and penicillin/streptomycin. LL 29 (AnHa) cells were obtained from the ATCC and growth to confluence using the ATCC protocol, but were subcultured as described for IMR-90 before initiation of all experiments. Quiescence was induced by replacing culture media with media containing 0.2% FBS. MCF-7 and MDA-MB-231 breast cancer cells were cultured in RPMI supplemented with 10% FBS and penicillin/streptomycin. All cells were cultured at 3% O2, and used between 25 and 40 population doublings. All cells were mycoplasma free.
Senescence was induced by irradiation with 10 Gy of ionizing radiation. Non-senescent controls (proliferating or quiescent) were placed in the irradiator for an identical period of time without turning on the irradiator. Oncogene-induced senescence was induced via lentiviral overexpression of HRAS^V12, as described previously (Wiley et al. (2016) Cell Metab. 23: 303-314).
3×10^4 cells in 12-well plates were treated as indicated in the text, and cultured in 0.5-1 ml serum-free DMEM for 24 hr. CM were collected and clarified at 2,000×g for 10 min. Supernatants were transferred to a tube; cells were trypsinized and counted. CM (2.5 μl) were analyzed by bead-based ELISAs (AlphaLISA, Perkin-Elmer) as instructed by the manufacturer and normalized to cell number.

[2] = test system: IMR-90 fibroblasts; type: cell-based, human
Experimental: as §1
RNA was extracted from cells or tissues using commercially available kits (Isolate II—Bioline for cells; Direct-zol—Zymo for tissues) according to the manufacturer's instructions. cDNA synthesis was performed using a High Capacity cDNA Reverse Transcription Kit (Thermo Fisher) according to the manufacturer's instructions. Quantitative PCR was performed on a LightCycler 480 II (Roche) using primers and probes designed for the Universal Probe Library. Primers and probes used for human transcripts were ACTB: 5′-CCAACCGCGAGAAGATGA (SEQ ID NO:1), 5′-TCCATCACGATGCCAGTG (SEQ ID NO:2), Probe #64; TUBA: 5′-cttcgtctccgccatcag (SEQ ID NO:3), 5′-ttgccaatctggacacca (SEQ ID NO:4), Probe #58; ALOX5: 5′-[…] (SEQ ID NO:5), 5′-[…] (SEQ ID NO:6), Probe #64; ALOX5AP: 5′-ggtctgcggggctacttt (SEQ ID NO:7), 5′-[…] (SEQ ID NO:8), Probe #18; ALOX12: 5′-[…] (SEQ ID NO:9), 5′-agccaggtcgtcaggag (SEQ ID NO:10), Probe #32; ALOX15: 5′-[…] (SEQ ID NO:11), 5′-[…] (SEQ ID NO:12), Probe #76; ALOX15B: 5′-[…] (SEQ ID NO:13), 5′-actgggaggcgaagaagg (SEQ ID NO:14), Probe #51; AKR1C1: 5′-catgcctgtcctgggattt (SEQ ID NO:15), 5′-[…] (SEQ ID NO:16), Probe #49; AKR1C2: 5′-ctatgcgcctgcagaggt (SEQ ID NO:17), 5′-[…] (SEQ ID NO:18), Probe #31; AKR1C3: 5′-[…] (SEQ ID NO:19), 5′-[…] (SEQ ID NO:20), Probe #78; CYSLTR2: 5′-[…] (SEQ ID NO:21), 5′-[…] (SEQ ID NO:22), Probe #18; DPEP1: 5′-gacgtcctgaggctggtg (SEQ ID NO:23), 5′-[…] (SEQ ID NO:24), Probe #9 (SEQ ID NO:25), ELOVL2: 5′-[…] (SEQ ID NO:26), 5′-[…] (SEQ ID NO:27), Probe #53; ELOVL4: 5′-catttggcccatggattc (SEQ ID NO:28), 5′-[…] (SEQ ID NO:29), Probe #31; ELOVL5: 5′-cccttccatgcgtccata (SEQ ID NO:30), 5′-[…] (SEQ ID NO:31), Probe #31; EPHX2: 5′-ttctgctggacaccctgaa (SEQ ID NO:32), 5′-[…] (SEQ ID NO:33), Probe #45; GPX4: 5′-ttcccgtgtaaccagttcg (SEQ ID NO:34), 5′-[…] (SEQ ID NO:35), Probe #36; LTA4H: 5′-ctgctctcacggtccagtc (SEQ ID NO:36), 5′-[…] (SEQ ID NO:37), Probe #64; LTBR2: 5′-[…] (SEQ ID NO:38), 5′-[…] (SEQ ID NO:39), Probe #33; LTC4S: 5′-[…] (SEQ ID NO:40), 5′-[…] (SEQ ID NO:41), Probe #18; PTGDS: 5′-[…] (SEQ ID NO:42), 5′-[…] (SEQ ID NO:43), Probe #36; PTGES: 5′-agagatgcctgcccacag (SEQ ID NO:44), 5′-tggccaccacgtacatctt (SEQ ID NO:45), Probe #4; PTGES2: 5′-[…] (SEQ ID NO:46), 5′-[…] (SEQ ID NO:47), Probe #49; PTGES3 (SEQ ID NO:48), 5′-[…] (SEQ ID NO:49), 5′-[…] (SEQ ID NO:50), Probe #48; PTGIS: 5′-[…] (SEQ ID NO:51), 5′-[…] (SEQ ID NO:52), Probe #45; PTGR1: 5′-atgatggggcagcaagtg (SEQ ID NO:53), 5′-cccatcagaaatggagtgc (SEQ ID NO:54), Probe #64; PTGS1: 5′-[…] (SEQ ID NO:55), 5′-gtggtggtccatgttcctg (SEQ ID NO:56), Probe #81; PTGS2: 5′-gatccccagggctcaaac (SEQ ID NO:57), 5′-[…] (SEQ ID NO:58), Probe #61; TBXAS1: 5′-[…] (SEQ ID NO:59), 5′-tgcctcccgtgtgaatct (SEQ ID NO:60), Probe #73; AREG: 5′-[…] (SEQ ID NO:61), 5′-[…] (SEQ ID NO:62), Probe #73; CCL2: 5′-AGTCTCTGCCGCCCTTCT (SEQ ID NO:63), 5′-GTGACTGGGGCATTGATTG (SEQ ID NO:64), Probe #40; CCL27: 5′-[…] (SEQ ID NO:65), 5′-gctgggtggcagtaggaat (SEQ ID NO:66), Probe #18; CXCL1: 5′-[…] (SEQ ID NO:67), 5′-[…] (SEQ ID NO:68), Probe #52; HGF: 5′-[…] (SEQ ID NO:69), 5′-[…]

CC(/C=C/c1cccc(Oc2ccc(F)cc2)c1)N(O)C(N)=O (centres unmarked) [BW-B70C]
lowered IL-6 secretion in senescent cells [1]: ~50% | growth of non-senescent cells [2]: retarded growth
